According to the supplement of paper PMC10307832:

Key:
Assay in all cases: relative viability (nuclei count vs DMSO), 5 days (fraction); higher = more cells survive
Carboplatin + Foretinib = compound: C1CC(C1)(C(=O)O)C(=O)O.[NH2-].[NH2-].[Pt+2] [Carboplatin] + COc1cc2c(Oc3ccc(NC(=O)C4(C(=O)Nc5ccc(F)cc5)CC4)cc3F)ccnc2cc1OCCCN1CCOCC1 [Foretinib] (partner 0.25 µM)
Outline: (§1)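 Relative viability is defined as nuclei in treated wells over nuclei in vehicle wells. Duplicate plates were run and medians reported. Lung cancer cell lines in 1536-well plates were dosed by pin tool one day after seeding, with one drug or with a fixed anchor-drug dose plus five library-drug doses (not always all listed) in √10 steps, and nuclei were counted after 5 days.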

GSK126 + Luminespib = compound: CC[C@H](C)N1C=C(C2=C(C=C(C=C21)C3=CN=C(C=C3)N4CCNCC4)C(=O)NCC5=C(C=C(NC5=O)C)C)C [GSK126] + CCNC(=O)c1noc(-c2cc(C(C)C)c(O)cc2O)c1-c1ccc(CN2CCOCC2)cc1 [Luminespib] (partner 0.01 µM)
Outline: as §1

GSK126 + Foretinib = compound: CC[C@H](C)N1C=C(C2=C(C=C(C=C21)C3=CN=C(C=C3)N4CCNCC4)C(=O)NCC5=C(C=C(NC5=O)C)C)C [GSK126] + COc1cc2c(Oc3ccc(NC(=O)C4(C(=O)Nc5ccc(F)cc5)CC4)cc3F)ccnc2cc1OCCCN1CCOCC1 [Foretinib] (partner 0.25 µM)
Outline: as §1

MLN4924 + AZD7762 = compound: NS(=O)(=O)OC[C@@H]1C[C@@H](n2ccc3c(N[C@H]4CCc5ccccc54)ncnc32)C[C@@H]1O [MLN4924] + NC(=O)Nc1cc(-c2cccc(F)c2)sc1C(=O)N[C@H]1CCCNC1 [AZD7762] (partner 0.2 µM)
Outline: as §1

| Cell Line | relative viability (Carboplatin + Foretinib; first compound 0.08 µM) | relative viability (Carboplatin + Foretinib; first compound 0.253 µM) | relative viability (Carboplatin + Foretinib; first compound 0.8 µM) | relative viability (Carboplatin + Foretinib; first compound 2.53 µM) | relative viability (Carboplatin + Foretinib; first compound 8 µM) | relative viability (GSK126 + Luminespib; first compound 0.08 µM) | relative viability (GSK126 + Luminespib; first compound 0.253 µM) | relative viability (GSK126 + Luminespib; first compound 0.8 µM) | relative viability (GSK126 + Luminespib; first compound 2.53 µM) | relative viability (GSK126 + Luminespib; first compound 8 µM) | relative viability (GSK126 + Foretinib; first compound 0.08 µM) | relative viability (GSK126 + Foretinib; first compound 0.253 µM) | relative viability (GSK126 + Foretinib; first compound 0.8 µM) | relative viability (GSK126 + Foretinib; first compound 2.53 µM) | relative viability (GSK126 + Foretinib; first compound 8 µM) | relative viability (MLN4924 + AZD7762; first compound 0.04 µM) | relative viability (MLN4924 + AZD7762; first compound 0.1265 µM) | relative viability (MLN4924 + AZD7762; first compound 0.4 µM) | relative viability (MLN4924 + AZD7762; first compound 1.265 µM) | relative viability (MLN4924 + AZD7762; first compound 4 µM) |
| --- | --- | --- | --- | --- | --- | --- | --- | --- | --- | --- | --- | --- | --- | --- | --- | --- | --- | --- | --- | --- |
| NCI-H1666 | 0.977 | 0.918 | 0.823 | 0.832 | 0.607 | 1.04 | 0.926 | 0.858 | 0.855 | 0.907 | 0.997 | 0.925 | 0.918 | 0.921 | 0.917 | 0.726 | 0.755 | 0.614 | 0.356 | 0.362 |
| LCLC-97TM1 | 1 | 0.956 | 0.892 | 0.868 | 0.765 | 0.758 | 0.796 | 0.867 | 0.82 | 0.81 | 1.03 | 0.942 | 0.954 | 1.06 | 0.994 | 0.338 | 0.22 | 0.0891 | 0.0605 | 0.0696 |
| NCI-H2405 | 1.15 | 1.09 | 0.983 | 0.958 | 0.952 | 0.946 | 0.74 | 0.711 | 0.695 | 0.604 | 1.03 | 1 | 1.02 | 1.06 | 1.02 | 1.05 | 0.964 | 0.557 | 0.225 | 0.245 |
| NCI-H1915 | 1.12 | 1.13 | 1.04 | 1.05 | 0.81 | 0.986 | 0.771 | 0.788 | 0.823 | 0.841 | 1.22 | 1.16 | 1.09 | 1.08 | 1.2 | 0.844 | 0.786 | 0.713 | 0.265 | 0.162 |
| NCI-H650 | 1.01 | 1.14 | 0.941 | 0.91 | 0.614 | 0.92 | 0.787 | 0.744 | 0.834 | 0.876 | 1.15 | 1.02 | 0.954 | 1.02 | 1.03 | 1.1 | 0.578 | 0.371 | 0.231 | 0.148 |
| NCI-H596 | 0.828 | 1.01 | 0.707 | 0.59 | 0.431 | 1.11 | 0.319 | 0.277 | 0.263 | 0.219 | 0.854 | 0.497 | 1.08 | 0.975 | 0.809 | 1.04 | 1.22 | 1.06 | 1.15 | 1.19 |
| NCI-H2087 | 1.18 | 1.14 | 1.15 | 0.957 | 0.757 | 0.144 | 0.134 | 0.142 | 0.165 | 0.185 | 1.2 | 0.999 | 1.05 | 1.28 | 1.13 | 1.3 | 1.17 | 0.604 | 0.165 | 0.128 |
| RERF-LC-KJ | 0.933 | 0.874 | 0.956 | 0.772 | 0.713 | 1.22 | 1.09 | 1.31 | 1.3 | 1.16 | 0.955 | 0.893 | 0.852 | 0.897 | 0.825 | 0.941 | 0.738 | 0.256 | 0.182 | 0.253 |
| NCI-H2126 | 1.31 | 1.14 | 1.04 | 1.25 | 1.04 | 1 | 0.924 | 0.873 | 0.972 | 0.734 | 1.19 | 0.847 | 1.21 | 1.28 | 1.25 | 1.02 | 1.02 | 0.767 | 0.49 | 0.369 |
| HARA | 1.05 | 1.03 | 0.83 | 0.798 | 0.744 | 0.787 | 0.679 | 0.688 | 0.895 | 0.813 | 1.14 | 0.93 | 0.874 | 0.877 | 0.839 | 0.42 | 0.328 | 0.415 | 0.0749 | 0.106 |
| EPLC-272H | 0.785 | 0.852 | 0.727 | 0.611 | 0.602 | 0.485 | 0.198 | 0.595 | 0.522 | 0.237 | 0.809 | 0.789 | 0.736 | 0.742 | 0.754 | 0.27 | 0.239 | 0.0814 | 0.133 | 0.106 |
| NCI-H727 | 1.1 | 0.967 | 0.9 | 0.792 | 0.637 | 0.482 | 0.375 | 0.421 | 0.345 | 0.336 | 1.09 | 0.981 | 0.888 | 1.01 | 0.744 | 0.574 | 0.432 | 0.402 | 0.372 | 0.242 |
| NCI-H2170 | 0.994 | 0.527 | 1.02 | 0.942 | 0.468 | 0.655 | 0.924 | 0.595 | 0.546 | 0.722 | 0.587 | 1.03 | 0.979 | 0.969 | 0.973 | 0.9 | 0.536 | 0.544 | 0.147 | 0.112 |
| EKVX | 0.903 | 0.893 |  | 0.749 | 0.747 | 0.842 | 0.878 | 0.856 | 0.836 | 0.896 | 0.755 | 0.881 | 0.782 | 0.876 | 0.903 | 0.854 | 0.784 | 0.674 | 0.314 | 0.232 |
| NCI-H1437 | 1.28 | 1.34 | 1.22 | 1.2 | 1.08 | 1.09 | 1.07 | 1.04 | 1.11 | 1.06 | 1.32 | 1.29 | 1.14 | 1.26 | 1.27 | 0.999 | 0.852 | 0.855 | 0.589 | 0.285 |
| PC-3 [JPC-3] | 1.08 | 1.03 | 1 | 1.05 | 0.933 | 0.75 | 0.728 | 0.745 | 0.708 | 0.734 | 1.02 | 1.02 | 1.02 | 1.01 | 0.997 | 0.854 | 0.964 | 0.736 | 0.328 | 0.334 |
